Reference: PubChem BioAssay AID200 (DTP/NCI, 2004)
“And” between values parts separate entries of the source, which are not always exact repeats. Equal entries are not always repeated. Inconclusive results and toxic doses are left out.

Tested on: B6C3F1 mice, B16 melanoma ip, median survival T/C
Assay: NCI In Vivo Anticancer Drug Screen. Data for tumor model B16 Melanoma (intraperitoneal) in B6C3F1 mice
Settings: endpoint: median survival time, schedule: Q01DX009 (ip), higher = longer survival
In short: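 Tumor-bearing mice received test compound; a separate group got vehicle only. Survival was then compared, with results reported as treated over control.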

[1] = dose: 3.12 mg/kg/injection, vehicle: saline
[2] = dose: 12.5 mg/kg/injection, vehicle: saline with Tween-80
[3] = dose: 25.0 mg/kg/injection, vehicle: saline with Tween-80
[4] = dose: 50.0 mg/kg/injection, vehicle: saline with Tween-80
[5] = dose: 100.0 mg/kg/injection, vehicle: saline with Tween-80
[6] = dose: 200.0 mg/kg/injection, vehicle: saline with Tween-80
[7] = dose: 400.0 mg/kg/injection, vehicle: saline with Tween-80
[8] = dose: 50.0 mg/kg/injection, vehicle: Klucel (hydroxypropylcellulose) (HPC)
[9] = dose: 100.0 mg/kg/injection, vehicle: Klucel (hydroxypropylcellulose) (HPC)
[10] = dose: 200.0 mg/kg/injection, vehicle: Klucel (hydroxypropylcellulose) (HPC)
[11] = dose: 400.0 mg/kg/injection, vehicle: Klucel (hydroxypropylcellulose) (HPC)

CN=C(N)N/N=C(\c1ccccc1)c1ccc(Br)cc1
T/C (dose: 1.5 mg/kg/injection, vehicle: saline with Tween-80): 103 % of control | T/C (dose: 3.0 mg/kg/injection, vehicle: saline with Tween-80): 107 % of control | T/C (dose: 6.0 mg/kg/injection, vehicle: saline with Tween-80): 97 % of control | T/C (dose: 12.0 mg/kg/injection, vehicle: saline with Tween-80): 96 % of control

CCCC(NC(=O)CN)C(=O)O (configuration not stated)
T/C (dose: 25.0 mg/kg/injection, vehicle: saline): 108 % of control | T/C (dose: 50.0 mg/kg/injection, vehicle: saline): 100 % of control | T/C (dose: 100.0 mg/kg/injection, vehicle: saline): 99 % of control | T/C (dose: 200.0 mg/kg/injection, vehicle: saline): 94 % of control | T/C (dose: 400.0 mg/kg/injection, vehicle: saline): 108 % of control

C(=N/NC1=NCCN1)/c1c2ccccc2c(/C=N\NC2=NCCN2)c2ccccc12
T/C [1]: 183 % of control | T/C (dose: 6.25 mg/kg/injection, vehicle: saline): 189 % of control | T/C (dose: 12.5 mg/kg/injection, vehicle: saline): 179 % of control

CNC[C@@H](O)c1ccc(O)c(O)c1
T/C (dose: 0.75 mg/kg/injection, vehicle: suspension in saline): 114 % of control | T/C (dose: 1.5 mg/kg/injection, vehicle: suspension in saline): 115 % of control | T/C (dose: 3.0 mg/kg/injection, vehicle: suspension in saline): 99 % of control

C=C1C(C)C2C(Cc3ccccc3)NC(=O)C23C(OC(C)=O)C=CC(C)(O)C(=O)C(C)C/C=C/C3C1O (configuration not stated)
T/C (dose: 0.31 mg/kg/injection, vehicle: Klucel (hydroxypropylcellulose) (HPC)): 101 % of control | T/C (dose: 0.63 mg/kg/injection, vehicle: Klucel (hydroxypropylcellulose) (HPC)): 98 % of control | T/C (dose: 1.25 mg/kg/injection, vehicle: Klucel (hydroxypropylcellulose) (HPC)): 109 % of control | T/C (dose: 2.5 mg/kg/injection, vehicle: Klucel (hydroxypropylcellulose) (HPC)): 101 % of control | T/C (dose: 5.0 mg/kg/injection, vehicle: Klucel (hydroxypropylcellulose) (HPC)): 106 % of control

Nc1nc2c(ncn2C2OC(CO)C(O)C2O)c(=O)[nH]1 (configuration not stated)
T/C (dose: 75.0 mg/kg/injection, vehicle: saline with Tween-80): 120 % of control | T/C (dose: 1200.0 mg/kg/injection, vehicle: saline with Tween-80): 121 % of control | T/C (dose: 2400.0 mg/kg/injection, vehicle: saline with Tween-80): 116 % of control

Cn1c2c(c3ccccc3c1=O)C(=O)c1ccccc1-2
T/C (dose: 3.13 mg/kg/injection, vehicle: saline with Tween-80): 114 % of control | T/C (dose: 6.25 mg/kg/injection, vehicle: saline with Tween-80): 105 % of control | T/C [2]: 98 % of control and 101 % of control | T/C [3]: 104 % of control | T/C [4]: 96 % of control | T/C [5]: 102 % of control | T/C [6]: 94 % of control | T/C [7]: 88 % of control

O=C(N[C@H](CO)[C@H](O)c1ccc([N+](=O)[O-])cc1)C(Cl)Cl
T/C [4]: 117 % of control | T/C [5]: 103 % of control | T/C [6]: 109 % of control | T/C [7]: 97 % of control | T/C (dose: 800.0 mg/kg/injection, vehicle: saline with Tween-80): 100 % of control

CCC(C)C(O)C(C)C(=O)C(C)/C=C(\C)CC(C)C1OC(=O)C1CC (configuration not stated)
T/C (dose: 0.25 mg/kg/injection, vehicle: saline + alcohol): 104 % of control | T/C (dose: 0.5 mg/kg/injection, vehicle: saline + alcohol): 98 % of control and 104 % of control | T/C (dose: 1.0 mg/kg/injection, vehicle: saline + alcohol): 109 % of control and 100 % of control | T/C (dose: 2.0 mg/kg/injection, vehicle: saline + alcohol): 98 % of control and 103 % of control

CC(C)CC(NC(=O)CNC(=O)CNC(=O)OCc1ccccc1)C(=O)O (configuration not stated)
T/C (dose: 0.75 mg/kg/injection, vehicle: Klucel (hydroxypropylcellulose) (HPC)): 103 % of control | T/C (dose: 1.5 mg/kg/injection, vehicle: Klucel (hydroxypropylcellulose) (HPC)): 107 % of control | T/C (dose: 3.0 mg/kg/injection, vehicle: Klucel (hydroxypropylcellulose) (HPC)): 95 % of control | T/C (dose: 3.12 mg/kg/injection, vehicle: Klucel (hydroxypropylcellulose) (HPC)): 101 % of control | T/C (dose: 6.0 mg/kg/injection, vehicle: Klucel (hydroxypropylcellulose) (HPC)): 106 % of control | T/C (dose: 6.25 mg/kg/injection, vehicle: Klucel (hydroxypropylcellulose) (HPC)): 92 % of control | T/C (dose: 12.0 mg/kg/injection, vehicle: Klucel (hydroxypropylcellulose) (HPC)): 101 % of control | T/C (dose: 12.5 mg/kg/injection, vehicle: Klucel (hydroxypropylcellulose) (HPC)): 92 % of control | T/C (dose: 25.0 mg/kg/injection, vehicle: Klucel (hydroxypropylcellulose) (HPC)): 115 % of control and 104 % of control | T/C [8]: 100 % of control | T/C [9]: 122 % of control | T/C [10]: 89 % of control | T/C [11]: 110 % of control

O=C1CNC(=O)N1CN1CCOCC1
T/C [8]: 94 % of control | T/C [9]: 94 % of control | T/C [10]: 115 % of control | T/C [11]: 101 % of control

CCOC(=O)c1c(C)c(C(=O)OCC)n(C)c1C=O
T/C [5]: 95 % of control | T/C [6]: 94 % of control | T/C [7]: 92 % of control

NC(=O)Oc1cccc(OC(N)=O)c1
T/C (dose: 12.5 mg/kg/injection, vehicle: distilled water + Tween-80): 108 % of control | T/C (dose: 25.0 mg/kg/injection, vehicle: distilled water + Tween-80): 107 % of control | T/C (dose: 50.0 mg/kg/injection, vehicle: distilled water + Tween-80): 99 % of control | T/C (dose: 100.0 mg/kg/injection, vehicle: distilled water + Tween-80): 96 % of control | T/C (dose: 200.0 mg/kg/injection, vehicle: distilled water + Tween-80): 113 % of control | T/C (dose: 400.0 mg/kg/injection, vehicle: distilled water + Tween-80): 105 % of control

CCCCCC(O)C1C(=O)OC(C)C(O)/C=C/C=C/C=C/C=C/C=C(\C)C(O)C(O)C(O)CC(O)CC(O)CC(O)CC(O)CC1O (configuration not stated)
T/C (dose: 0.5 mg/kg/injection, vehicle: other): 98 % of control | T/C (dose: 1.0 mg/kg/injection, vehicle: other): 119 % of control | T/C (dose: 1.56 mg/kg/injection, vehicle: saline): 102 % of control | T/C [1]: 88 % of control | T/C (dose: 4.0 mg/kg/injection, vehicle: other): 169 % of control | T/C (dose: 8.0 mg/kg/injection, vehicle: other): 166 % of control

O=[N+]([O-])c1ccc(-n2[nH]nnc2=S)cc1
T/C [2]: 100 % of control and 101 % of control | T/C [3]: 101 % of control and 103 % of control | T/C [4]: 95 % of control | T/C [5]: 93 % of control and 100 % of control | T/C [6]: 88 % of control and 92 % of control
